Experimental data taken from patent publication US20230310636A1, “COMBINATION THERAPIES FOR TREATMENT OF CANCER WITH THERAPEUTIC BINDING MOLECULES” (MedImmune Limited, priority 2022, published 2023).

Columns and labels:
[1] = preclinical models; cited from earlier work
[2] = tested on: MDA-MB-468 breast cancer xenografts; assay: MDA-MB-468 breast cancer xenograft, ADC with AZD5305; assay type: in vivo, mice; settings: AZD5305 individually, 0.1 mg/kg and 1 mg/kg, once daily oral, 28 days; FIG. 7
Description: MDA-MB-468 cells were injected 5×10^6 per mouse into the mammary fat pad of female CB-17 SCID mice. […] Tumor and body weight measurements were recorded twice weekly for the duration of the study.
All animal experiments were conducted in a facility accredited by the Association for Assessment and Accreditation of Laboratory Animal Care under the guidelines of AstraZeneca's Institutional Animal Care and Use Committee and appropriate animal research approvals. Cell line xenograft models were established through subcutaneous implantation of cells in 50% Matrigel (Corning, Corning, NY, USA) in either the right mammary fat pad (MX-1, MDA-MB-468) or left flank (HT29, HT29-huB7-H4) of female CB-17 mice (Envigo, Frederick, MD, USA). When tumor volume reached 150-200 mm^3, mice were randomized and given a single intravenous (IV) injection of vehicle control (20 mM histidine, pH 6; 240 mM sucrose; 0.02% PS-80) or ADCs. Body weight and tumor measurements were determined once or twice weekly, and tumor volume was calculated with the formula

Q: For `CCc1cc2ncc(CN3CCN(c4ccc(C(=O)NC)nc4)CC3)cc2[nH]c1=O` [AZD5305, 5-[4-[(7-ethyl-6-oxo-5H-1,5-naphthyridin-3-yl)methyl]piperazin-1-yl]-N-methyl-pyridine-2-carboxamide], which “hematological toxicity in comparison with non-selective PARPi” value [1] is on record?
A: The value was “reduced hematological toxicity”.

Q: What about the “anti-tumor activity in vivo (tumor size over time)” value [2] of the same compound?
A: Its value is “little to no anti-tumor activity”.
